Results taken from patent US6355799B1, “Substituted benzene compounds, process for their preparation, and herbicidal and defoliant compositions containing them” (ISK Americas Incorporated, priority 1997, dated 2002).

Assays:
Format in all cases: in vivo
[1] = test system: redroot pigweed (Amaranthus retroflexus, AMARE); assay: Pre-emerge test, greenhouse herbicide activity screening; settings: rated 14 days after application, 0 = no damage, 100 = complete death
Outline: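 Compounds in acetone were track-sprayed at 187 l/ha, 15–1000 g ai/ha, onto sandy loam pots. Pre-emerge seeds were sown one day before spraying, with surface watering afterwards. Post-emerge plants were at the 2–3 leaf stage and sprayed with 0.25% v/v non-ionic surfactant. Injury was rated 0–100 at 14 days.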

[2] = test system: barnyardgrass (Echinochloa crus-galli, ECHCG); assay: as above; settings: rated 14 days after application, 0 = no damage, 100 = complete death
Outline: (§1)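 Fourteen days after spraying, crop and weed injury was graded visually from 0, no effect, to 100, every plant dead. Test substances were dissolved in acetone and applied at 15–1000 g ai/ha with a flat-fan nozzle. Application was either pre-emergence, one day after sowing, or post-emergence at the 2–3 leaf stage.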

[3] = test system: common ragweed (Ambrosia artemisizfolia L., AMBEL); assay: as above; settings: rated 14 days after application, 0 = no damage, 100 = complete death
Outline: as §1

[4] = test system: green foxtail (Setaria viridis, SETVI); assay: as above; settings: rated 14 days after application, 0 = no damage, 100 = complete death
Outline: as §1

[5] = test system: ivyleaf morningglory (Ipomoea hederacea, IPOHE); assay: as above; settings: rated 14 days after application, 0 = no damage, 100 = complete death
Outline: as §1

[6] = test system: johnsongrass (Sorghum halepense, SORHA); assay: as above; settings: rated 14 days after application, 0 = no damage, 100 = complete death
Outline: as §1

[7] = test system: lambsquarters (Chenopodium album, CHEAL); assay: as above; settings: rated 14 days after application, 0 = no damage, 100 = complete death
Outline: as §1

[8] = test system: large crabgrass (Digitaria sanguinalis, DIGSA); assay: as above; settings: rated 14 days after application, 0 = no damage, 100 = complete death
Outline: as §1

[9] = test system: sicklepod (Cassia obtusifolia, CASOB); assay: as above; settings: rated 14 days after application, 0 = no damage, 100 = complete death
Outline: as §1

[10] = test system: velvetleaf (Abutilon theophrasti, ABUTH); assay: as above; settings: rated 14 days after application, 0 = no damage, 100 = complete death
Outline: as §1

[11] = test system: field corn (Zea mays L., var. Dekalb 535, CORN); assay: Pre-emerge test, crop safety; settings: rated 14 days after application, 0 = no damage, 100 = complete death
Outline: (§2)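 Sandy loam pots; pre-emerge: sown 1 d pre-spray, surface-watered after, then bottom-watered. Post-emerge: sown 8–21 d before, 2–3 leaf stage, + 0.25% v/v NIS, bottom-watered. Acetone, 187 l/ha track spray, 15–1000 g ai/ha. 0–100 injury score, day 14.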

[12] = test system: upland rice (Oryza sp., var. Tebonnet, RICE); assay: Pre-emerge test, crop safety; settings: rated 14 days after application, 0 = no damage, 100 = complete death
Outline: as §2

[13] = test system: barnyardgrass (Echinochloa crus-galli, ECHCG); assay: Post-emerge test, greenhouse herbicide activity screening; settings: post-emerge, 14 days after application, rating scale 0-100
Outline: (§3)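 Compounds in acetone were track-sprayed at 15–1000 g ai/ha: pre-emergence onto soil sown the previous day, then top-watered to incorporate and later bottom-watered; post-emergence onto 2–3 leaf plants with 0.25% v/v surfactant, bottom-watered only. Ratings on a 0–100 phytotoxicity scale were taken at day 14.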

[14] = test system: common ragweed (Ambrosia artemisizfolia L., AMBEL); assay: as above; settings: post-emerge, 14 days after application, rating scale 0-100
Outline: as §3

[15] = test system: ivyleaf morningglory (Ipomoea hederacea, IPOHE); assay: as above; settings: post-emerge, 14 days after application, rating scale 0-100
Outline: as §3

[16] = test system: johnsongrass (Sorghum halepense, SORHA); assay: as above; settings: post-emerge, 14 days after application, rating scale 0-100
Outline: as §3

[17] = test system: lambsquarters (Chenopodium album, CHEAL); assay: as above; settings: post-emerge, 14 days after application, rating scale 0-100
Outline: as §3

[18] = test system: large crabgrass (Digitaria sanguinalis, DIGSA); assay: as above; settings: post-emerge, 14 days after application, rating scale 0-100
Outline: as §3

[19] = test system: redroot pigweed (Amaranthus retroflexus, AMARE); assay: as above; settings: post-emerge, 14 days after application, rating scale 0-100
Outline: as §3

[20] = test system: sicklepod (Cassia obtusifolia, CASOB); assay: as above; settings: post-emerge, 14 days after application, rating scale 0-100
Outline: as §3

[21] = test system: velvetleaf (Abutilon theophrasti, ABUTH); assay: as above; settings: post-emerge, 14 days after application, rating scale 0-100
Outline: as §3

[22] = test system: field corn (Zea mays L., var. Dekalb 535, CORN); assay: Post-emerge test, crop safety; settings: post-emerge, 14 days after application, rating scale 0-100
Outline: as §1

[23] = test system: upland rice (Oryza sp., var. Tebonnet, RICE); assay: Post-emerge test, crop safety; settings: post-emerge, 14 days after application, rating scale 0-100
Outline: as §1

SMILES: COc1c(Cl)cc(F)c(-n2c(=O)cc(C(F)(F)F)n(C)c2=O)c1N(C(=O)c1ccc(C(F)(F)F)cc1)C(=O)c1ccc(C(F)(F)F)cc1 [2-34]
- Pre-emerge Herbicidal Activity, phytotoxicity rating (0-100), AMARE ([1]; 63 g ai/ha): 100
- Pre-emerge Herbicidal Activity, phytotoxicity rating (0-100), AMARE ([1]; 250 g ai/ha): 100
- Pre-emerge Herbicidal Activity, phytotoxicity rating (0-100), ECHCG ([2]; 63 g ai/ha): 70
- Pre-emerge Herbicidal Activity, phytotoxicity rating (0-100), ECHCG ([2]; 250 g ai/ha): 99
- Pre-emerge Herbicidal Activity, phytotoxicity rating (0-100), AMBEL ([3]; 63 g ai/ha): 100
- Pre-emerge Herbicidal Activity, phytotoxicity rating (0-100), AMBEL ([3]; 250 g ai/ha): 100
- Pre-emerge Herbicidal Activity, phytotoxicity rating (0-100), SETVI ([4]; 63 g ai/ha): 95
- Pre-emerge Herbicidal Activity, phytotoxicity rating (0-100), SETVI ([4]; 250 g ai/ha): 100
- Pre-emerge Herbicidal Activity, phytotoxicity rating (0-100), IPOHE ([5]; 63 g ai/ha): 100
- Pre-emerge Herbicidal Activity, phytotoxicity rating (0-100), IPOHE ([5]; 250 g ai/ha): 100
- Pre-emerge Herbicidal Activity, phytotoxicity rating (0-100), SORHA ([6]; 63 g ai/ha): 20
- Pre-emerge Herbicidal Activity, phytotoxicity rating (0-100), SORHA ([6]; 250 g ai/ha): 85
- Pre-emerge Herbicidal Activity, phytotoxicity rating (0-100), CHEAL ([7]; 63 g ai/ha): 100
- Pre-emerge Herbicidal Activity, phytotoxicity rating (0-100), CHEAL ([7]; 250 g ai/ha): 100
- Pre-emerge Herbicidal Activity, phytotoxicity rating (0-100), DIGSA ([8]; 63 g ai/ha): 70
- Pre-emerge Herbicidal Activity, phytotoxicity rating (0-100), DIGSA ([8]; 250 g ai/ha): 100
- Pre-emerge Herbicidal Activity, phytotoxicity rating (0-100), CASOB ([9]; 63 g ai/ha): 100
- Pre-emerge Herbicidal Activity, phytotoxicity rating (0-100), CASOB ([9]; 250 g ai/ha): 100
- Pre-emerge Herbicidal Activity, phytotoxicity rating (0-100), ABUTH ([10]; 63 g ai/ha): 100
- Pre-emerge Herbicidal Activity, phytotoxicity rating (0-100), ABUTH ([10]; 250 g ai/ha): 100
- Pre-emerge phytotoxicity rating (0-100), crop damage, CORN ([11]; 63 g ai/ha): 25
- Pre-emerge phytotoxicity rating (0-100), crop damage, CORN ([11]; 250 g ai/ha): 90
- Pre-emerge phytotoxicity rating (0-100), crop damage, RICE ([12]; 63 g ai/ha): 40
- Pre-emerge phytotoxicity rating (0-100), crop damage, RICE ([12]; 250 g ai/ha): 90
- phytotoxicity rating ECHCG ([13]; 63 g ai/ha): 0
- phytotoxicity rating ECHCG ([13]; 250 g ai/ha): 30
- phytotoxicity rating AMBEL ([14]; 63 g ai/ha): 70
- phytotoxicity rating AMBEL ([14]; 250 g ai/ha): 85
- phytotoxicity rating IPOHE ([15]; 63 g ai/ha): 75
- phytotoxicity rating IPOHE ([15]; 250 g ai/ha): 95
- phytotoxicity rating SORHA ([16]; 63 g ai/ha): 40
- phytotoxicity rating SORHA ([16]; 250 g ai/ha): 80
- phytotoxicity rating CHEAL ([17]; 63 g ai/ha): 85
- phytotoxicity rating CHEAL ([17]; 250 g ai/ha): 90
- phytotoxicity rating DIGSA ([18]; 63 g ai/ha): 10
- phytotoxicity rating DIGSA ([18]; 250 g ai/ha): 30
- phytotoxicity rating AMARE ([19]; 63 g ai/ha): 95
- phytotoxicity rating AMARE ([19]; 250 g ai/ha): 95
- phytotoxicity rating CASOB ([20]; 63 g ai/ha): 100
- phytotoxicity rating CASOB ([20]; 250 g ai/ha): 100
- phytotoxicity rating ABUTH ([21]; 63 g ai/ha): 100
- phytotoxicity rating ABUTH ([21]; 250 g ai/ha): 100
- phytotoxicity rating CORN ([22]; 63 g ai/ha): 60
- phytotoxicity rating CORN ([22]; 250 g ai/ha): 90
- phytotoxicity rating RICE ([23]; 63 g ai/ha): 65
- phytotoxicity rating RICE ([23]; 250 g ai/ha): 85
